Laboratory results as given in ChEMBL document CHEMBL5518248, “Design, Synthesis, and Biological Evaluation of Novel Arylomycins against Multidrug-Resistant Gram-Negative Bacteria” (J Med Chem, 2024).

Key:
Format in all cases: functional
Conditions in all cases: time 18-20 hrs
Escherichia coli [1] = experiment: Antibacterial activity against Escherichia coli ATCC 35218 assessed as inhibition of bacterial growth measured after 18 to 20 hrs by broth microdilution method
Escherichia coli [2] = experiment: Antibacterial activity against Escherichia coli 14-2 assessed as inhibition of bacterial growth measured after 18 to 20 hrs by broth microdilution method
Escherichia coli [3] = experiment: Antibacterial activity against Escherichia coli 14-4 assessed as inhibition of bacterial growth measured after 18 to 20 hrs by broth microdilution method
Klebsiella pneumoniae [4] = experiment: Antibacterial activity against Klebsiella pneumoniae 15-1 assessed as inhibition of bacterial growth measured after 18 to 20 hrs by broth microdilution method
Klebsiella pneumoniae [5] = experiment: Antibacterial activity against Klebsiella pneumoniae 15-4 assessed as inhibition of bacterial growth measured after 18 to 20 hrs by broth microdilution method
Klebsiella pneumoniae [6] = experiment: Antibacterial activity against Klebsiella pneumoniae 15-5 assessed as inhibition of bacterial growth measured after 18 to 20 hrs by broth microdilution method
Acinetobacter baumannii [7] = experiment: Antibacterial activity against Acinetobacter baumannii 17-2 assessed as inhibition of bacterial growth measured after 18 to 20 hrs by broth microdilution method
Acinetobacter baumannii [8] = experiment: Antibacterial activity against Acinetobacter baumannii 17-8 assessed as inhibition of bacterial growth measured after 18 to 20 hrs by broth microdilution method
Pseudomonas aeruginosa [9] = experiment: Antibacterial activity against Pseudomonas aeruginosa 17-1 assessed as inhibition of bacterial growth measured after 18 to 20 hrs by broth microdilution method
Pseudomonas aeruginosa [10] = experiment: Antibacterial activity against Pseudomonas aeruginosa 19-5 assessed as inhibition of bacterial growth measured after 18 to 20 hrs by broth microdilution method

Compound	MIC (Escherichia coli [1])	MIC (Escherichia coli [2])	MIC (Escherichia coli [3])	MIC (Klebsiella pneumoniae [4])	MIC (Klebsiella pneumoniae [5])	MIC (Klebsiella pneumoniae [6])	MIC (Acinetobacter baumannii [7])	MIC (Acinetobacter baumannii [8])	MIC (Pseudomonas aeruginosa [9])	MIC (Pseudomonas aeruginosa [10])
Cc1nc(C2=CCC3(CC2)CC3)ncc1C(=O)N[C@@H](CCN)C(=O)N(C)[C@@H]1C(=O)N[C@@H](C)C(=O)N[C@H](C(=O)NCC#N)Cc2ccc(OCCN)c(c2)-c2cc1ccc2OCCN.O=C(O)C(F)(F)F.O=C(O)C(F)(F)F.O=C(O)C(F)(F)F.O=C(O)C(F)(F)F	0.125 µg/mL	0.25 µg/mL	0.25 µg/mL	0.25 µg/mL	0.25 µg/mL	1 µg/mL	16 µg/mL	4 µg/mL	> 64 µg/mL	> 64 µg/mL
Cc1nc(-c2ccc(C(C)(C)C)cc2)ncc1C(=O)N[C@@H](CCN)C(=O)N(C)[C@H]1Cc2ccc(OCCN)c(c2)-c2cc(ccc2OCCN)[C@@H](C(=O)NCC#N)NC(=O)[C@H](C)NC1=O.Cl.Cl.Cl.Cl	> 64 µg/mL	> 64 µg/mL	> 64 µg/mL	> 64 µg/mL	> 64 µg/mL	> 64 µg/mL	> 64 µg/mL	–	> 64 µg/mL	> 64 µg/mL
Cc1nc(C2CCC3(CC2)CC3)ncc1C(=O)N[C@@H](CCN)C(=O)N(C)[C@@H]1C(=O)N[C@@H](C)C(=O)N[C@H](C(=O)NCC#N)Cc2ccc(OCCN)c(c2)-c2cc1ccc2OCCN.O=C(O)C(F)(F)F.O=C(O)C(F)(F)F.O=C(O)C(F)(F)F.O=C(O)C(F)(F)F	1 µg/mL	2 µg/mL	1 µg/mL	2 µg/mL	4 µg/mL	2 µg/mL	64 µg/mL	8 µg/mL	> 64 µg/mL	> 64 µg/mL
Cc1nc(-c2ccc(SSC(C)C)cc2)ncc1C(=O)N[C@@H](CCN)C(=O)N(C)[C@@H]1C(=O)N[C@@H](C)C(=O)N[C@H](C(=O)NCC#N)Cc2ccc(OCCN)c(c2)-c2cc1ccc2OCCN.O=C(O)C(F)(F)F.O=C(O)C(F)(F)F.O=C(O)C(F)(F)F.O=C(O)C(F)(F)F	≤ 0.03 µg/mL	0.06 µg/mL	≤ 0.03 µg/mL	0.06 µg/mL	0.06 µg/mL	0.06 µg/mL	0.5 µg/mL	0.25 µg/mL	4 µg/mL	4 µg/mL
Cc1nc(-c2ccc([C@H](C)SSC(C)(C)C)cc2)ncc1C(=O)N[C@@H](CCN)C(=O)N(C)[C@@H]1C(=O)N[C@@H](C)C(=O)N[C@H](C(=O)NCC#N)Cc2ccc(OCCN)c(c2)-c2cc1ccc2OCCN.O=C(O)C(F)(F)F.O=C(O)C(F)(F)F.O=C(O)C(F)(F)F.O=C(O)C(F)(F)F	≤ 0.03 µg/mL	≤ 0.03 µg/mL	≤ 0.03 µg/mL	0.125 µg/mL	0.125 µg/mL	0.125 µg/mL	0.25 µg/mL	0.25 µg/mL	4 µg/mL	1 µg/mL
Cc1nc(-c2ccc(CCCSSC(C)(C)C)cc2)ncc1C(=O)N[C@@H](CCN)C(=O)N(C)[C@@H]1C(=O)N[C@@H](C)C(=O)N[C@H](C(=O)NCC#N)Cc2ccc(OCCN)c(c2)-c2cc1ccc2OCCN.O=C(O)C(F)(F)F.O=C(O)C(F)(F)F.O=C(O)C(F)(F)F.O=C(O)C(F)(F)F	0.5 µg/mL	0.5 µg/mL	0.25 µg/mL	0.5 µg/mL	0.5 µg/mL	0.5 µg/mL	1 µg/mL	1 µg/mL	4 µg/mL	2 µg/mL
Cc1nc(-c2ccc(C(C)(C)C)cc2)ncc1C(=O)N[C@@H](CCN)C(=O)N(C)[C@@H]1C(=O)N[C@@H](C)C(=O)N[C@H](C(=O)OCC=O)Cc2ccc(OCCN)c(c2)-c2cc1ccc2OCCN.Cl.Cl.Cl.Cl	≤ 0.03 µg/mL	0.06 µg/mL	0.125 µg/mL	≤ 0.03 µg/mL	0.06 µg/mL	≤ 0.03 µg/mL	8 µg/mL	2 µg/mL	> 64 µg/mL	> 64 µg/mL
Cc1nc(-c2ccc(CSSC(C)(C)C)cc2)ccc1C(=O)N[C@@H](CCN)C(=O)N(C)[C@@H]1C(=O)N[C@@H](C)C(=O)N[C@H](C(=O)NCC#N)Cc2ccc(OCCN)c(c2)-c2cc1ccc2OCCN.O=C(O)C(F)(F)F.O=C(O)C(F)(F)F.O=C(O)C(F)(F)F.O=C(O)C(F)(F)F	≤ 0.03 µg/mL	0.25 µg/mL	0.125 µg/mL	0.125 µg/mL	0.125 µg/mL	0.06 µg/mL	1 µg/mL	1 µg/mL	8 µg/mL	8 µg/mL
Cc1nc(-c2ccc(CSSC(C)(C)C)c(F)c2)ncc1C(=O)N[C@@H](CCN)C(=O)N(C)[C@@H]1C(=O)N[C@@H](C)C(=O)N[C@H](C(=O)NCC#N)Cc2ccc(OCCN)c(c2)-c2cc1ccc2OCCN.O=C(O)C(F)(F)F.O=C(O)C(F)(F)F.O=C(O)C(F)(F)F.O=C(O)C(F)(F)F	0.06 µg/mL	0.125 µg/mL	0.125 µg/mL	0.25 µg/mL	0.25 µg/mL	0.25 µg/mL	1 µg/mL	1 µg/mL	4 µg/mL	4 µg/mL
Cc1cc(-c2ccc(CSSC(C)(C)C)cc2)ncc1C(=O)N[C@@H](CCN)C(=O)N(C)[C@@H]1C(=O)N[C@@H](C)C(=O)N[C@H](C(=O)NCC#N)Cc2ccc(OCCN)c(c2)-c2cc1ccc2OCCN.O=C(O)C(F)(F)F.O=C(O)C(F)(F)F.O=C(O)C(F)(F)F.O=C(O)C(F)(F)F	≤ 0.03 µg/mL	0.25 µg/mL	0.125 µg/mL	0.125 µg/mL	0.5 µg/mL	0.25 µg/mL	1 µg/mL	1 µg/mL	8 µg/mL	6 µg/mL
Cc1nc(-c2ccc(C(C)(C)C)cc2)ncc1C(=O)N[C@@H](CCN)C(=O)N(C)[C@@H]1C(=O)N[C@@H](C)C(=O)N[C@H](C(=O)NCC=O)Cc2ccc(OCCN)c(c2)-c2cc1ccc2OCCN.Cl.Cl.Cl.Cl	≤ 0.03 µg/mL	≤ 0.03 µg/mL	0.06 µg/mL	≤ 0.03 µg/mL	0.125 µg/mL	≤ 0.03 µg/mL	4 µg/mL	2 µg/mL	> 64 µg/mL	64 µg/mL
CCSSc1ccc(-c2ncc(C(=O)N[C@@H](CCN)C(=O)N(C)[C@@H]3C(=O)N[C@@H](C)C(=O)N[C@H](C(=O)NCC#N)Cc4ccc(OCCN)c(c4)-c4cc3ccc4OCCN)c(C)n2)cc1.O=C(O)C(F)(F)F.O=C(O)C(F)(F)F.O=C(O)C(F)(F)F.O=C(O)C(F)(F)F	≤ 0.03 µg/mL	0.125 µg/mL	0.06 µg/mL	0.06 µg/mL	0.125 µg/mL	0.125 µg/mL	2 µg/mL	1 µg/mL	8 µg/mL	8 µg/mL
Cc1nc(-c2ccc([C@@H](C)SSC(C)(C)C)cc2)ncc1C(=O)N[C@@H](CCN)C(=O)N(C)[C@@H]1C(=O)N[C@@H](C)C(=O)N[C@H](C(=O)NCC#N)Cc2ccc(OCCN)c(c2)-c2cc1ccc2OCCN.O=C(O)C(F)(F)F.O=C(O)C(F)(F)F.O=C(O)C(F)(F)F.O=C(O)C(F)(F)F	≤ 0.03 µg/mL	≤ 0.03 µg/mL	≤ 0.03 µg/mL	0.25 µg/mL	0.25 µg/mL	0.125 µg/mL	0.5 µg/mL	0.5 µg/mL	4 µg/mL	4 µg/mL
Cc1nc(-c2ccc(CSSC(C)(C)C)cc2)nc(C)c1C(=O)N[C@@H](CCN)C(=O)N(C)[C@@H]1C(=O)N[C@@H](C)C(=O)N[C@H](C(=O)NCC#N)Cc2ccc(OCCN)c(c2)-c2cc1ccc2OCCN.O=C(O)C(F)(F)F.O=C(O)C(F)(F)F.O=C(O)C(F)(F)F.O=C(O)C(F)(F)F	≤ 0.03 µg/mL	0.06 µg/mL	0.06 µg/mL	0.125 µg/mL	0.125 µg/mL	0.125 µg/mL	0.5 µg/mL	0.5 µg/mL	4 µg/mL	4 µg/mL
Cc1nc(-c2ccc(C(C)(C)C)cc2)ncc1C(=O)N[C@@H](CCN)C(=O)N(C)[C@@H]1C(=O)N[C@@H](C)C(=O)N[C@H](C(=O)NCS(=O)(=O)O)Cc2ccc(OCCN)c(c2)-c2cc1ccc2OCCN.Cl.Cl.Cl.Cl	16 µg/mL	32 µg/mL	8 µg/mL	4 µg/mL	16 µg/mL	8 µg/mL	> 64 µg/mL	–	> 64 µg/mL	> 64 µg/mL
Cc1nc(-c2ccc(C(C)(C)C)cc2)ncc1C(=O)N[C@@H](CCN)C(=O)N(C)[C@@H]1C(=O)N[C@@H](C)C(=O)N[C@H](C(=O)NCC#N)c2ccc(OCCN)c(c2)-c2cc1ccc2OCCN.Cl.Cl.Cl.Cl	64 µg/mL	32 µg/mL	32 µg/mL	64 µg/mL	> 64 µg/mL	64 µg/mL	> 64 µg/mL	–	> 64 µg/mL	32 µg/mL
Cc1nc(-c2ccc(C(C)(C)C)cc2)ncc1C(=O)N[C@@H](CCN)C(=O)N(C)[C@@H]1C(=O)N[C@@H](C)C(=O)N[C@H](C(=O)NCC(=O)O)Cc2ccc(OCCN)c(c2)-c2cc1ccc2OCCN.Cl.Cl.Cl.Cl	1 µg/mL	1 µg/mL	1 µg/mL	1 µg/mL	2 µg/mL	1 µg/mL	64 µg/mL	–	> 64 µg/mL	> 64 µg/mL
Cc1nc(-c2ccc(C(C)(C)C)cc2)ncc1C(=O)N[C@@H](CCN)C(=O)N(C)[C@@H]1C(=O)N[C@@H](C)C(=O)N[C@H](C(=O)NOCC#N)Cc2ccc(OCCN)c(c2)-c2cc1ccc2OCCN.Cl.Cl.Cl.Cl	0.5 µg/mL	0.5 µg/mL	0.5 µg/mL	0.5 µg/mL	2 µg/mL	1 µg/mL	32 µg/mL	–	> 64 µg/mL	> 64 µg/mL
Cc1nc(-c2ccc(C(C)(C)C)cc2)ncc1C(=O)N[C@@H](CCN)C(=O)N(C)[C@@H]1C(=O)NCCC(=O)N[C@H](C(=O)NCC#N)Cc2ccc(OCCN)c(c2)-c2cc1ccc2OCCN.Cl.Cl.Cl.Cl	16 µg/mL	16 µg/mL	16 µg/mL	32 µg/mL	32 µg/mL	64 µg/mL	> 64 µg/mL	–	> 64 µg/mL	> 64 µg/mL
